According to US20070185099A1, “Triazolopyrimidine compounds and their use for controlling pathogenic fungi” (priority 2004, published 2007):

Tested on: Puccinia recondita
Test: Curative activity against brown rust of wheat caused by Puccinia recondita
Format: in vivo
Settings: 250 ppm active compound, wheat cultivar Kanzler, 7 days after treatment, untreated plants 80% infected
Experimental: The active compounds were prepared as a stock solution by mixing 25 mg of active compound with a mixture of acetone and/or DMSO and the emulsifier Uniperol® EL (wetting agent having an emulsifying and dispersing action based on ethoxylated alkylphenols) in a volume ratio of solvent/emulsifier of 99:1 to give a total volume of 10 ml, and the mixture was then diluted to 100 ml with water. This stock solution was diluted with the solvent/emulsifier/water mixture described to give the concentration of active compounds stated below.
Leaves of potted wheat seedlings of the cultivar “Kanzler” were inoculated with a spore suspension of brown rust (Puccinia recondita). The pots were then placed into a chamber with high atmospheric humidity (90 to 95%) and at 20-22° C. for 24 hours. During this time, the spores germinated and the germ tubes penetrated into the leaf tissue. The next day, the infected plants were sprayed to runoff point with an aqueous suspension having the concentration of active compounds stated below. The suspension or emulsion was prepared as described above. After the spray coating had dried on, the test plants were cultivated in a greenhouse at temperatures between 20 and 22° C. and at 65 to 70% relative atmospheric humidity for 7 days. The extent of the rust fungus development on the leaves was then determined.

COC(=O)C(Nc1c(-c2c(F)cc(F)cc2F)c(Cl)nc2ncnn12)C(C)(C)C (racemic) [Example 61]
infection of treated plants (rust fungus development on leaves): no infection

COC(=O)C(C(C)C)N(C)c1c(-c2c(F)cc(F)cc2F)c(Cl)nc2ncnn12 (centres unmarked) [Example 60]
infection of treated plants (rust fungus development on leaves): no infection
